Source: US10154957B2, “Microneedle device having a peptide therapeutic agent and an amino acid and methods of making and using the same” (3M INNOVATIVE PROPERTIES COMPANY, priority 2011, dated 2018)

Assay: Percent purity of PTHrP analogue (10 mg/mL formulations) in coating on arrays stored at 25° C./60% RH or 5° C./ambient RH (HPLC)
Format: physicochemical
Description: The protein or polypeptide content in the formulation coated on the microneedle arrays was determined using an Agilent 1100 HPLC system (Agilent Technologies, Wilmington, Del.) equipped with a binary pump, well-plated thermostated autosampler, thermostated column compartment, and a diode array UV detector. A Zorbax 300SB-C8 column (Agilent Technologies, Wilmington, Del.) having a 5 μm particle size and 2.1×150 mm inner diameter was used for the separations. The column was maintained at 50° C. The mobile phase consisted of two eluents. Eluent A was 0.1% TFA (trifluoroacetic acid) in water and eluent B was 0.1% TFA in acetonitrile (Spectrum Chemical, New Brunswick, N.J.). A linear gradient from 80/20 to 50/50 (A/B) was applied over 30 minutes. The flow rate was 0.4 mL/minute and the UV detection wavelength was set at 214 nm. The total run time was 34 minutes and the sample injection volume was 15 μL.
A sample formulation containing 10 mg/mL of [Glu^22,25,Leu^23,28,31,Aib^29,Lys^26,30]hPTHrP(1-34)NH2 and 10 mg/mL of L-histidine monohydrochloride (His-HCl) in PBS was prepared. A control formulation was also prepared containing 10 mg/mL of [Glu^22,25,Leu^23,28,31,Aib^29,Lys^26,30]hPTHrP(1-34)NH2 in PBS. […] Microneedle arrays were coated with either the sample or the control formulation. The coating was applied by dropwise addition of 40 μL of the formulation to the portion of the array defined by the octagon shaped pattern of microneedles. The coated arrays (both sample and control formulation coated) were dried in an oven at 35° C. for 1.5 hours followed by 30° C. for 15 hours.
After drying, the coated arrays were placed in a storage chamber that was maintained at either 25° C./60% RH or 5° C./ambient RH. The [Glu^22,25,Leu^23,28,31,Aib^29,Lys^26,30]hPTHrP(1-34)NH2 content of the coated arrays was determined following storage in the chamber for 7 days, 14 days, 28 days, and 2 months. The initial [Glu^22,25,Leu^23,28,31,Aib^29,Lys^26,30]hPTHrP(1-34)NH2 content was also determined using freshly coated arrays (both sample and control formulation coated). The arrays used to determine initial content were stored in a refrigerator at about 4° C. and analyzed within one day of being prepared. At the designated time point, an array was taken from the chamber and washed with PBS (3.5 mL) to remove the coating from the array. An aliquot of the resulting wash solution was analyzed for [Glu^22,25,Leu^23,28,31,Aib^29,Lys^26,30]hPTHrP(1-34)NH2 content using the HPLC method described above. The results were quantified against an external standard of [Glu^22,25,Leu^23,28,31,Aib^29,Lys^26,30]hPTHrP(1-34)NH2. At each time point, the percent purity of [Glu^22,25,Leu^23,28,31,Aib^29,Lys^26,30]hPTHrP(1-34)NH2 in the coating was determined by measuring the peak area for [Glu^22,25,Leu^23,28,31,Aib^29,Lys^26,30]hPTHrP(1-34)NH2 in the selected coating and dividing it by the total peak area measured for all [Glu^22,25,Leu^23,28,31,Aib^29,Lys^26,30]hPTHrP(1-34)NH2 related peaks.
The same procedure as described in Example 10 was used with the exception that the sample formulation contained 10 mg/mL of L-arginine hydrochloride, instead of L-histidine monohydrochloride.

- Percent Purity of [Glu^22,25, Leu^23,28,31, Aib^29, Lys^26,30]hPTHrP(1-34)NH2 (Amino Acid L-Arginine (Arg-HCl 10 mg/mL), peptide in PBS, Storage Condition 5° C./ambient RH, 0 day): 99.0%
- Percent Purity of [Glu^22,25, Leu^23,28,31, Aib^29, Lys^26,30]hPTHrP(1-34)NH2 (Amino Acid L-Arginine (Arg-HCl 10 mg/mL), peptide in PBS, Storage Condition 5° C./ambient RH, 2 months): 98.4%
- Percent Purity of [Glu^22,25, Leu^23,28,31, Aib^29, Lys^26,30]hPTHrP(1-34)NH2 (Amino Acid L-Arginine (Arg-HCl 10 mg/mL), peptide in PBS, Storage Condition 5° C./ambient RH, 7 day): 98.8%
- Percent Purity of [Glu^22,25, Leu^23,28,31, Aib^29, Lys^26,30]hPTHrP(1-34)NH2 (Amino Acid L-Arginine (Arg-HCl 10 mg/mL), peptide in PBS, Storage Condition 5° C./ambient RH, 14 day): 98.8%
- Percent Purity of [Glu^22,25, Leu^23,28,31, Aib^29, Lys^26,30]hPTHrP(1-34)NH2 (Amino Acid L-Arginine (Arg-HCl 10 mg/mL), peptide in PBS, Storage Condition 5° C./ambient RH, 28 day): 98.8%
- Percent Purity of [Glu^22,25, Leu^23,28,31, Aib^29, Lys^26,30]hPTHrP(1-34)NH2 (Amino Acid L-Arginine (Arg-HCl 10 mg/mL), peptide in PBS, Storage Condition 25° C./60% RH, 0 day): 99.0%
- Percent Purity of [Glu^22,25, Leu^23,28,31, Aib^29, Lys^26,30]hPTHrP(1-34)NH2 (Amino Acid L-Arginine (Arg-HCl 10 mg/mL), peptide in PBS, Storage Condition 25° C./60% RH, 2 months): 97.8%
- Percent Purity of [Glu^22,25, Leu^23,28,31, Aib^29, Lys^26,30]hPTHrP(1-34)NH2 (Amino Acid L-Arginine (Arg-HCl 10 mg/mL), peptide in PBS, Storage Condition 25° C./60% RH, 7 day): 98.8%
- Percent Purity of [Glu^22,25, Leu^23,28,31, Aib^29, Lys^26,30]hPTHrP(1-34)NH2 (Amino Acid L-Arginine (Arg-HCl 10 mg/mL), peptide in PBS, Storage Condition 25° C./60% RH, 14 day): 98.6%
- Percent Purity of [Glu^22,25, Leu^23,28,31, Aib^29, Lys^26,30]hPTHrP(1-34)NH2 (Amino Acid L-Arginine (Arg-HCl 10 mg/mL), peptide in PBS, Storage Condition 25° C./60% RH, 28 day): 98.7%
- Percent Purity of [Glu^22,25, Leu^23,28,31, Aib^29, Lys^26,30]hPTHrP(1-34)NH2 (Amino Acid L-Histidine (His-HCl 10 mg/mL), peptide 10 mg/mL in PBS, Storage Condition 5° C./ambient RH, 2 months): 98.7%
- Percent Purity of [Glu^22,25, Leu^23,28,31, Aib^29, Lys^26,30]hPTHrP(1-34)NH2 (Amino Acid L-Histidine (His-HCl 10 mg/mL), peptide 10 mg/mL in PBS, Storage Condition 5° C./ambient RH, Day 7): 98.9%
- Percent Purity of [Glu^22,25, Leu^23,28,31, Aib^29, Lys^26,30]hPTHrP(1-34)NH2 (Amino Acid L-Histidine (His-HCl 10 mg/mL), peptide 10 mg/mL in PBS, Storage Condition 5° C./ambient RH, Day 14): 98.9%
- Percent Purity of [Glu^22,25, Leu^23,28,31, Aib^29, Lys^26,30]hPTHrP(1-34)NH2 (Amino Acid L-Histidine (His-HCl 10 mg/mL), peptide 10 mg/mL in PBS, Storage Condition 5° C./ambient RH, Day 28): 98.9%
- Percent Purity of [Glu^22,25, Leu^23,28,31, Aib^29, Lys^26,30]hPTHrP(1-34)NH2 (Amino Acid L-Histidine (His-HCl 10 mg/mL), peptide 10 mg/mL in PBS, Storage Condition 5° C./ambient RH, Initial): 99.0%
- Percent Purity of [Glu^22,25, Leu^23,28,31, Aib^29, Lys^26,30]hPTHrP(1-34)NH2 (Amino Acid L-Histidine (His-HCl 10 mg/mL), peptide 10 mg/mL in PBS, Storage Condition 25° C./60% RH, 2 months): 98.6%
- Percent Purity of [Glu^22,25, Leu^23,28,31, Aib^29, Lys^26,30]hPTHrP(1-34)NH2 (Amino Acid L-Histidine (His-HCl 10 mg/mL), peptide 10 mg/mL in PBS, Storage Condition 25° C./60% RH, Day 7): 98.9%
- Percent Purity of [Glu^22,25, Leu^23,28,31, Aib^29, Lys^26,30]hPTHrP(1-34)NH2 (Amino Acid L-Histidine (His-HCl 10 mg/mL), peptide 10 mg/mL in PBS, Storage Condition 25° C./60% RH, Day 14): 98.8%
- Percent Purity of [Glu^22,25, Leu^23,28,31, Aib^29, Lys^26,30]hPTHrP(1-34)NH2 (Amino Acid L-Histidine (His-HCl 10 mg/mL), peptide 10 mg/mL in PBS, Storage Condition 25° C./60% RH, Day 28): 98.9%
- Percent Purity of [Glu^22,25, Leu^23,28,31, Aib^29, Lys^26,30]hPTHrP(1-34)NH2 (Amino Acid L-Histidine (His-HCl 10 mg/mL), peptide 10 mg/mL in PBS, Storage Condition 25° C./60% RH, Initial): 99.0%
- Percent Purity of [Glu^22,25, Leu^23,28,31, Aib^29, Lys^26,30]hPTHrP(1-34)NH2 (Amino Acid None (control), peptide 10 mg/mL in PBS, Storage Condition 5° C./ambient RH, 2 months): 97.3%
- Percent Purity of [Glu^22,25, Leu^23,28,31, Aib^29, Lys^26,30]hPTHrP(1-34)NH2 (Amino Acid None (control), peptide 10 mg/mL in PBS, Storage Condition 5° C./ambient RH, Day 7): 98.2%
- Percent Purity of [Glu^22,25, Leu^23,28,31, Aib^29, Lys^26,30]hPTHrP(1-34)NH2 (Amino Acid None (control), peptide 10 mg/mL in PBS, Storage Condition 5° C./ambient RH, Day 14): 98.4%
- Percent Purity of [Glu^22,25, Leu^23,28,31, Aib^29, Lys^26,30]hPTHrP(1-34)NH2 (Amino Acid None (control), peptide 10 mg/mL in PBS, Storage Condition 5° C./ambient RH, Day 28): 97.6%
- Percent Purity of [Glu^22,25, Leu^23,28,31, Aib^29, Lys^26,30]hPTHrP(1-34)NH2 (Amino Acid None (control), peptide 10 mg/mL in PBS, Storage Condition 5° C./ambient RH, Initial): 98.7%
- Percent Purity of [Glu^22,25, Leu^23,28,31, Aib^29, Lys^26,30]hPTHrP(1-34)NH2 (Amino Acid None (control), peptide 10 mg/mL in PBS, Storage Condition 25° C./60% RH, 2 months): 96.3%
- Percent Purity of [Glu^22,25, Leu^23,28,31, Aib^29, Lys^26,30]hPTHrP(1-34)NH2 (Amino Acid None (control), peptide 10 mg/mL in PBS, Storage Condition 25° C./60% RH, Day 7): 98.0%
- Percent Purity of [Glu^22,25, Leu^23,28,31, Aib^29, Lys^26,30]hPTHrP(1-34)NH2 (Amino Acid None (control), peptide 10 mg/mL in PBS, Storage Condition 25° C./60% RH, Day 14): 97.7%
- Percent Purity of [Glu^22,25, Leu^23,28,31, Aib^29, Lys^26,30]hPTHrP(1-34)NH2 (Amino Acid None (control), peptide 10 mg/mL in PBS, Storage Condition 25° C./60% RH, Day 28): 97.5%
- Percent Purity of [Glu^22,25, Leu^23,28,31, Aib^29, Lys^26,30]hPTHrP(1-34)NH2 (Amino Acid None (control), peptide 10 mg/mL in PBS, Storage Condition 25° C./60% RH, Initial): 98.7%
Substance: [Glu^22,25,Leu^23,28,31,Aib^29,Lys^26,30]hPTHrP(1-34)NH2
